Experimental findings from ChEMBL document CHEMBL1909046, “DrugMatrix in vitro pharmacology data” are described below.

The structures appear in SMILES notation.

Chain of Delta-type opioid receptor (P41143 whole entry): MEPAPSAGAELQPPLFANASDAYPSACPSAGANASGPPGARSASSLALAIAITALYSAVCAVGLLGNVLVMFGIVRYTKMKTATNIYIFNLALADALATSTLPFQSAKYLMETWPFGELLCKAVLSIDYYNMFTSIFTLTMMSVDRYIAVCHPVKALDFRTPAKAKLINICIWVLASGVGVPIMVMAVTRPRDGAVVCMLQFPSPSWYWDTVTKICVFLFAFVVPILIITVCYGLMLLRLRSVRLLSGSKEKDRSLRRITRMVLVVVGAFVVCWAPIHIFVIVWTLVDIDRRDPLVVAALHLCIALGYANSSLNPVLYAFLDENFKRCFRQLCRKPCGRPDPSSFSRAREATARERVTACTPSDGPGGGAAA

One data set addresses T1, 5-hydroxytryptamine receptor 1A (Rattus norvegicus, UniProt P19327).
T1 sequence (P19327 whole entry): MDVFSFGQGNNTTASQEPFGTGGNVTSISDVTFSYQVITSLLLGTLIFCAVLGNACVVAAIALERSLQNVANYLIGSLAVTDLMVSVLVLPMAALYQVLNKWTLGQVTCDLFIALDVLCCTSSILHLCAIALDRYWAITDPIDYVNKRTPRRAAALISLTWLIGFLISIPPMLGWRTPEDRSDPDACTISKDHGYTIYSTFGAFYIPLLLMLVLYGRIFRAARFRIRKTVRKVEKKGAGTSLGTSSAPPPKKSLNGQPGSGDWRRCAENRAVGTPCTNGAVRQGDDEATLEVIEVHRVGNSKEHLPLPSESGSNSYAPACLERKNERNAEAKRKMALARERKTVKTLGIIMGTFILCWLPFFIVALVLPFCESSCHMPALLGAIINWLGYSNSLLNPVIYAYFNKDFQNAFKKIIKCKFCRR
It counts as cell membranes, Membrane. To be noted: cho-k1.
`C#C[C@]1(OC(C)=O)CC[C@H]2[C@@H]3CCC4=CC(=O)CC[C@@H]4[C@H]3CC[C@@]21C` [NORETHINDRONE ACETATE]: the IC50 entry is on record as “Not Active”.
Regarding `COc1ccc2[nH]c([S+]([O-])Cc3ncc(C)c(OC)c3C)nc2c1` (centres undefined) [OMEPRAZOLE], the IC50 result was “Not Active”.
Still for that read-out and setting: the same measure for `Cc1nccn1CC1CCc2c(c3ccccc3n2C)C1=O` (centres undefined) [ONDANSETRON]: “Not Active”; for `CCCCOc1ccc(OCCCN2CCOCC2)cc1` [PRAMOXINE]: “Not Active”.

The target in the next data set is cGMP-specific 3',5'-cyclic phosphodiesterase (Homo sapiens, UniProt O76074). As to the kind of experiment: DRUGMATRIX: Phosphodiesterase PDE5 enzyme inhibition (substrate: [3H]cGMP + cGMP). It counts as tissue-based. The note with it: platelet; Not Active = under 50% inhibition at 10 µM.
Turning to `C#C[C@]1(OC(C)=O)CC[C@H]2[C@@H]3CCC4=CC(=O)CC[C@@H]4[C@H]3CC[C@@]21C` [NORETHINDRONE ACETATE], the IC50 result is listed as “Not Active”.
Same read-out and setting: the value for `COc1ccc2[nH]c([S+]([O-])Cc3ncc(C)c(OC)c3C)nc2c1` (centres undefined) [OMEPRAZOLE] was “Not Active”.
The same measure, in the same setting: the value for `Cc1nccn1CC1CCc2c(c3ccccc3n2C)C1=O` (centres undefined) [ONDANSETRON] was “Not Active”; that for `CCCCOc1ccc(OCCCN2CCOCC2)cc1` [PRAMOXINE] was “Not Active”.

A further data set deals with D(1A) dopamine receptor (Homo sapiens, UniProt P21728). As to the kind of experiment: DRUGMATRIX: Dopamine D1 radioligand binding (ligand: [3H] SCH-23390). It counts as cell membranes, Membrane. To be noted: cho; Not Active = under 50% inhibition at 10 µM.
Chain of D(1A) dopamine receptor (P21728 whole entry): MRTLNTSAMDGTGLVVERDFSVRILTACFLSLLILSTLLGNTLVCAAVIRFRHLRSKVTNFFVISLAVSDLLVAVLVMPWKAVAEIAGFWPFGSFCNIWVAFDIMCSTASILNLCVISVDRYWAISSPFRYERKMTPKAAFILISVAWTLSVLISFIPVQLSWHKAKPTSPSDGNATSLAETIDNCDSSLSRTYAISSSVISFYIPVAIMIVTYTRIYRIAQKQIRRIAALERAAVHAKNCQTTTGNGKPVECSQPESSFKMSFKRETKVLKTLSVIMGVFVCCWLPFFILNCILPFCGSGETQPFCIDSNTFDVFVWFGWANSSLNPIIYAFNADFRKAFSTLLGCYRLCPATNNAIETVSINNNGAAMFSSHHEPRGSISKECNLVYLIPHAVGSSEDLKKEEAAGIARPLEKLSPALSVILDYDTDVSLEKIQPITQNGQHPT
Take `C#C[C@]1(OC(C)=O)CC[C@H]2[C@@H]3CCC4=CC(=O)CC[C@@H]4[C@H]3CC[C@@]21C` [NORETHINDRONE ACETATE]: the IC50 result is listed as “Not Active”.
As to `COc1ccc2[nH]c([S+]([O-])Cc3ncc(C)c(OC)c3C)nc2c1` (centres undefined) [OMEPRAZOLE], the IC50 result was “Not Active”.
Take `Cc1nccn1CC1CCc2c(c3ccccc3n2C)C1=O` (centres undefined) [ONDANSETRON]: the IC50 result was “Not Active”.
Turning to `CCCCOc1ccc(OCCCN2CCOCC2)cc1` [PRAMOXINE], the IC50 result is listed as “Not Active”.

Test system in the next data set: not listed separately
The data set can be described thus: DRUGMATRIX: Sigma2 radioligand binding (ligand: [3H] Ifenprodil). It counts as cell membranes, Rattus norvegicus, Wistar, Brain, Membrane. The note with it: Not Active = under 50% inhibition at 10 µM.
Take `C#C[C@]1(OC(C)=O)CC[C@H]2[C@@H]3CCC4=CC(=O)CC[C@@H]4[C@H]3CC[C@@]21C` [NORETHINDRONE ACETATE]: the IC50 entry is reported as “Not Active” and the Ki result was “Not Active”.
On to `COc1ccc2[nH]c([S+]([O-])Cc3ncc(C)c(OC)c3C)nc2c1` (centres undefined) [OMEPRAZOLE], for which the IC50 result is “Not Active” and the Ki entry is “Not Active”.
With `Cc1nccn1CC1CCc2c(c3ccccc3n2C)C1=O` (centres undefined) [ONDANSETRON], the concentration for half-maximal inhibition (IC50) entry is “Not Active” and the Ki entry is given as “Not Active”.

Still in this data set, the particulars now being: Not Active = under 50% inhibition at 10 µM; read-out: IC50.
Consider `CCCCOc1ccc(OCCCN2CCOCC2)cc1` [PRAMOXINE], for which the IC50 was found to be 1030 nM.

The data set is the same for the next values; noted with them: Not Active = under 50% inhibition at 10 µM; read-out: Ki.
`CCCCOc1ccc(OCCCN2CCOCC2)cc1` [PRAMOXINE]: the Ki was found to be 633 nM.

In the next data set the target is T2, Cytochrome P450 1A2 (Homo sapiens, UniProt P05177). Note: in other assays of this panel Not Active means under 50% inhibition at 10 µM.
T2 sequence (P05177 whole entry): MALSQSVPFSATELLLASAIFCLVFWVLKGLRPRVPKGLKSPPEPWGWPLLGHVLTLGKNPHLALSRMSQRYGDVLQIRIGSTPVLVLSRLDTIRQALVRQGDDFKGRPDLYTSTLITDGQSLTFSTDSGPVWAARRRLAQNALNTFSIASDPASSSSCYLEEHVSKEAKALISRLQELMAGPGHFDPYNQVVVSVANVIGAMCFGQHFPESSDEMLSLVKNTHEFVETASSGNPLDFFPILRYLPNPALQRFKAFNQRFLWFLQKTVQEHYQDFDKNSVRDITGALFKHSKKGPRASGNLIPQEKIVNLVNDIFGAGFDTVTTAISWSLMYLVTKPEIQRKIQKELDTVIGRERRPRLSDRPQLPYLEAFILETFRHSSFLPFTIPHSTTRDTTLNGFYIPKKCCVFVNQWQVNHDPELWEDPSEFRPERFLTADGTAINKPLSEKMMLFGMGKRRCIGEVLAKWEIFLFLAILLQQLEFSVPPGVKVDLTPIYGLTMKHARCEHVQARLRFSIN
To be noted: bti-tn-5b1-4.
Consider `C#C[C@]1(OC(C)=O)CC[C@H]2[C@@H]3CCC4=CC(=O)CC[C@@H]4[C@H]3CC[C@@]21C` [NORETHINDRONE ACETATE], for which the IC50 entry was “Not Active” and the Ki result was “Not Active”.
For `COc1ccc2[nH]c([S+]([O-])Cc3ncc(C)c(OC)c3C)nc2c1` (centres undefined) [OMEPRAZOLE], the IC50 result was “Not Active” and the Ki result was “Not Active”.
As for `Cc1nccn1CC1CCc2c(c3ccccc3n2C)C1=O` (centres undefined) [ONDANSETRON], the IC50 result was “Not Active” and the inhibitory constant (Ki) entry was “Not Active”.
Consider `CCCCOc1ccc(OCCCN2CCOCC2)cc1` [PRAMOXINE], for which the IC50 result is “Not Active” and the Ki result is listed as “Not Active”.

Test system in the next data set: not listed separately
The data set can be described thus: DRUGMATRIX: Tumor Necrosis Factor (TNF), Non-Selective radioligand binding (ligand: [125I] TNF-alpha). It counts as cell membranes, Membrane. The note with it: u-937; Not Active = under 50% inhibition at 10 µM.
On to `C#C[C@]1(OC(C)=O)CC[C@H]2[C@@H]3CCC4=CC(=O)CC[C@@H]4[C@H]3CC[C@@]21C` [NORETHINDRONE ACETATE], for which the IC50 entry is given as “Not Active” and the inhibitory constant (Ki) result is on record as “Not Active”.
Turning to `COc1ccc2[nH]c([S+]([O-])Cc3ncc(C)c(OC)c3C)nc2c1` (centres undefined) [OMEPRAZOLE], the IC50 entry was “Not Active” and the Ki result is recorded as “Not Active”.
Turning to `Cc1nccn1CC1CCc2c(c3ccccc3n2C)C1=O` (centres undefined) [ONDANSETRON], the IC50 entry is listed as “Not Active” and the Ki result is reported as “Not Active”.
For the molecule `CCCCOc1ccc(OCCCN2CCOCC2)cc1` [PRAMOXINE], the IC50 entry was “Not Active” and the Ki result is “Not Active”.

A further data set addresses Delta-type opioid receptor (Homo sapiens, UniProt P41143). It counts as cell membranes, HEK293, Membrane. The note with it: hek293.
For the molecule `C#C[C@]1(OC(C)=O)CC[C@H]2[C@@H]3CCC4=CC(=O)CC[C@@H]4[C@H]3CC[C@@]21C` [NORETHINDRONE ACETATE], the IC50 result is listed as “Not Active”.
The same measure, in the same setting: the value for `COc1ccc2[nH]c([S+]([O-])Cc3ncc(C)c(OC)c3C)nc2c1` (centres undefined) [OMEPRAZOLE] was “Not Active”; that for `Cc1nccn1CC1CCc2c(c3ccccc3n2C)C1=O` (centres undefined) [ONDANSETRON] was “Not Active”; that for `CCCCOc1ccc(OCCCN2CCOCC2)cc1` [PRAMOXINE] was “Not Active”.

The target in the next data set is T3, Alpha-1A adrenergic receptor (Rattus norvegicus, UniProt P43140).
T3 sequence (P43140 whole entry): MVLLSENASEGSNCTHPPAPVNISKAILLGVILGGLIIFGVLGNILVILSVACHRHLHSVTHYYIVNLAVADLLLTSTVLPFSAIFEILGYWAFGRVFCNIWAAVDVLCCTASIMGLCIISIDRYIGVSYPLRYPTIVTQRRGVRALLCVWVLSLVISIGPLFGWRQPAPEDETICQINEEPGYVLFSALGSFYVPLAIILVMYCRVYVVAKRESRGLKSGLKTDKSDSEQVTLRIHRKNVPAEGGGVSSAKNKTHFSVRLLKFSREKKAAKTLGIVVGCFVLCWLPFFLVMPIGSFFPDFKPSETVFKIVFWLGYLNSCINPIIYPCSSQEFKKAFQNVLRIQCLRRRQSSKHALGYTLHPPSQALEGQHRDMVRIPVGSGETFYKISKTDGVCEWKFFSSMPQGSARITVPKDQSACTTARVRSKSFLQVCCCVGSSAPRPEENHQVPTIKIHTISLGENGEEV
The data set can be described thus: DRUGMATRIX: Alpha-1A adrenergic receptor radioligand binding (ligand: prazosin). It counts as cell membranes, Wistar, Submaxillary gland, Membrane. The note with it: Not Active = under 50% inhibition at 10 µM.
Regarding `C#C[C@]1(OC(C)=O)CC[C@H]2[C@@H]3CCC4=CC(=O)CC[C@@H]4[C@H]3CC[C@@]21C` [NORETHINDRONE ACETATE], the IC50 result is “Not Active”.
As for `COc1ccc2[nH]c([S+]([O-])Cc3ncc(C)c(OC)c3C)nc2c1` (centres undefined) [OMEPRAZOLE], the IC50 entry was “Not Active”.
Same read-out and setting: the same measure for `Cc1nccn1CC1CCc2c(c3ccccc3n2C)C1=O` (centres undefined) [ONDANSETRON]: “Not Active”; for `CCCCOc1ccc(OCCCN2CCOCC2)cc1` [PRAMOXINE]: “Not Active”.

The IC50 is the concentration needed to halve the response being measured. For orientation: Ki means a measure of affinity in units of concentration, obtained from inhibition or displacement.
